Tests used:
Format in all cases: in vivo
[1] = test system: redroot pigweed (Amaranthus retroflexus, AMARE); assay: Pre-emerge test, greenhouse herbicide activity screening; settings: phytotoxicity rating 0-100, 14 days after application
Summary of the method: (§1)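 Rating: 0–100 visual injury, 14 DAA. Application: acetone, 187 l/ha, 15–1000 g ai/ha, flat-fan track sprayer with nozzle 40–45 cm above soil or canopy. Post-emerge runs used 0.25% v/v surfactant on 2–3 leaf plants.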

[2] = test system: ivyleaf morningglory (Ipomoea hederacea, IPOHE); assay: Post-emerge test, greenhouse herbicide activity screening; settings: post-emerge, 14 days after application, rating scale 0-100
Summary of the method: (§2)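 Compounds in acetone were track-sprayed at 15–1000 g ai/ha: pre-emergence onto soil sown the previous day, then top-watered to incorporate and later bottom-watered; post-emergence onto 2–3 leaf plants with 0.25% v/v surfactant, bottom-watered only. Ratings on a 0–100 phytotoxicity scale were taken at day 14.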

[3] = test system: large crabgrass (Digitaria sanguinalis, DIGSA); assay: as above; settings: post-emerge, 14 days after application, rating scale 0-100
Summary of the method: as §2

[4] = test system: lambsquarters (Chenopodium album, CHEAL); assay: as above; settings: post-emerge, 14 days after application, rating scale 0-100
Summary of the method: as §2

[5] = test system: redroot pigweed (Amaranthus retroflexus, AMARE); assay: as above; settings: post-emerge, 14 days after application
Summary of the method: as §2

[6] = test system: velvetleaf (Abutilon theophrasti, ABUTH); assay: as above; settings: post-emerge, 14 days after application, rating scale 0-100
Summary of the method: as §2

[7] = test system: green foxtail (Setaria viridis, SETVI); assay: as above; settings: post-emerge, 14 days after application, rating scale 0-100
Summary of the method: as §2

[8] = test system: barnyardgrass (Echinochloa crus-galli, ECHCG); assay: as above; settings: post-emerge, 14 days after application, rating scale 0-100
Summary of the method: as §2

[9] = test system: sicklepod (Cassia obtusifolia, CASOB); assay: as above; settings: post-emerge, 14 days after application, rating scale 0-100
Summary of the method: as §2

[10] = test system: johnsongrass (Sorghum halepense, SORHA); assay: as above; settings: post-emerge, 14 days after application, rating scale 0-100
Summary of the method: as §2

[11] = test system: upland rice (Oryza sp., var. Tebonnet, RICE); assay: Post-emerge test, crop safety; settings: post-emerge, 14 days after application, rating scale 0-100
Summary of the method: (§3)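 Visual ratings on a 0-100 scale (0 no damage, 100 all plants dead) were taken at 14 days after treatment. Rates of 15-1000 g ai/ha in acetone, 187 l/ha, were sprayed onto soil one day after planting (pre-emerge) or onto 2-3 leaf plants with 0.25% v/v surfactant (post-emerge).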

[12] = test system: field corn (Zea mays L., var. Dekalb 535, CORN); assay: Post-emerge test, crop safety; settings: post-emerge, 14 days after application, rating scale 0-100
Summary of the method: as §3

[13] = test system: upland rice (Oryza sp., var. Tebonnet, RICE); assay: Pre-emerge test, crop safety; settings: crop damage rating 0-100, 14 days after application
Summary of the method: as §1

[14] = test system: field corn (Zea mays L., var. Dekalb 535, CORN); assay: Pre-emerge test, crop safety; settings: crop damage rating 0-100, 14 days after application
Summary of the method: as §1

[15] = test system: ivyleaf morningglory (Ipomoea hederacea, IPOHE); assay: Pre-emerge test, greenhouse herbicide activity screening; settings: phytotoxicity rating 0-100, 14 days after application
Summary of the method: as §3

[16] = test system: large crabgrass (Digitaria sanguinalis, DIGSA); assay: as above; settings: phytotoxicity rating 0-100, 14 days after application
Summary of the method: as §3

[17] = test system: lambsquarters (Chenopodium album, CHEAL); assay: as above; settings: phytotoxicity rating 0-100, 14 days after application
Summary of the method: as §3

[18] = test system: velvetleaf (Abutilon theophrasti, ABUTH); assay: as above; settings: phytotoxicity rating 0-100, 14 days after application
Summary of the method: as §3

[19] = test system: green foxtail (Setaria viridis, SETVI); assay: as above; settings: phytotoxicity rating 0-100, 14 days after application
Summary of the method: as §3

[20] = test system: barnyardgrass (Echinochloa crus-galli, ECHCG); assay: as above; settings: phytotoxicity rating 0-100, 14 days after application
Summary of the method: as §3

[21] = test system: sicklepod (Cassia obtusifolia, CASOB); assay: as above; settings: phytotoxicity rating 0-100, 14 days after application
Summary of the method: as §3

[22] = test system: johnsongrass (Sorghum halepense, SORHA); assay: as above; settings: phytotoxicity rating 0-100, 14 days after application
Summary of the method: as §3

COc1c(Cl)cc(F)c(-n2c(=O)cc(C(F)(F)F)n(C)c2=O)c1NC(=O)OCc1ccc(Cl)c(Cl)c1 [4-32]
70: Pre-emerge Herbicidal Activity ABUTH ([18]; 250 g ai/ha)
50: Pre-emerge Herbicidal Activity AMARE ([1]; 63 g ai/ha) | phytotoxicity rating SETVI ([7]; 250 g ai/ha) | Pre-emerge Herbicidal Activity ECHCG ([20]; 250 g ai/ha)
95: Pre-emerge Herbicidal Activity SETVI ([19]; 250 g ai/ha)
40: phytotoxicity rating RICE (crop damage) ([11]; 250 g ai/ha) | Pre-emerge Herbicidal Activity IPOHE ([15]; 250 g ai/ha)
10: phytotoxicity rating DIGSA ([3]; 63 g ai/ha) | phytotoxicity rating SORHA ([10]; 63 g ai/ha) | Pre-emerge Herbicidal Activity CORN ([14]; 250 g ai/ha)
90: phytotoxicity rating ABUTH ([6]; 63 g ai/ha)
80: phytotoxicity rating CASOB ([9]; 63 g ai/ha) | phytotoxicity rating CASOB ([9]; 250 g ai/ha) | Pre-emerge Herbicidal Activity DIGSA ([16]; 250 g ai/ha) | Pre-emerge Herbicidal Activity CHEAL ([17]; 63 g ai/ha)
30: phytotoxicity rating SETVI ([7]; 63 g ai/ha) | phytotoxicity rating SORHA ([10]; 250 g ai/ha) | phytotoxicity rating CORN (crop damage) ([12]; 250 g ai/ha) | Pre-emerge Herbicidal Activity RICE ([13]; 250 g ai/ha) | Pre-emerge Herbicidal Activity SETVI ([19]; 63 g ai/ha) | Pre-emerge Herbicidal Activity CASOB ([21]; 250 g ai/ha) | Pre-emerge Herbicidal Activity SORHA ([22]; 250 g ai/ha)
100: Pre-emerge Herbicidal Activity AMARE ([1]; 250 g ai/ha) | phytotoxicity rating IPOHE ([2]; 63 g ai/ha) | phytotoxicity rating IPOHE ([2]; 250 g ai/ha) | phytotoxicity rating CHEAL ([4]; 63 g ai/ha) | phytotoxicity rating CHEAL ([4]; 250 g ai/ha) | phytotoxicity rating AMARE ([5]; 63 g ai/ha, rating scale 0-100 (0 no damage, 100 complete death)) | phytotoxicity rating AMARE ([5]; 250 g ai/ha, rating scale 0-100) | phytotoxicity rating ABUTH ([6]; 250 g ai/ha) | Pre-emerge Herbicidal Activity CHEAL ([17]; 250 g ai/ha)
0: phytotoxicity rating ECHCG ([8]; 63 g ai/ha) | Pre-emerge Herbicidal Activity RICE ([13]; 63 g ai/ha) | Pre-emerge Herbicidal Activity CORN ([14]; 63 g ai/ha) | Pre-emerge Herbicidal Activity IPOHE ([15]; 63 g ai/ha) | Pre-emerge Herbicidal Activity ABUTH ([18]; 63 g ai/ha) | Pre-emerge Herbicidal Activity ECHCG ([20]; 63 g ai/ha) | Pre-emerge Herbicidal Activity CASOB ([21]; 63 g ai/ha) | Pre-emerge Herbicidal Activity SORHA ([22]; 63 g ai/ha)
20: phytotoxicity rating DIGSA ([3]; 250 g ai/ha) | phytotoxicity rating ECHCG ([8]; 250 g ai/ha) | phytotoxicity rating RICE (crop damage) ([11]; 63 g ai/ha) | phytotoxicity rating CORN (crop damage) ([12]; 63 g ai/ha) | Pre-emerge Herbicidal Activity DIGSA ([16]; 63 g ai/ha)

Source: patent publication US6355799B1, “Substituted benzene compounds, process for their preparation, and herbicidal and defoliant compositions containing them” (ISK Americas Incorporated, priority 1997, dated 2002)
